Assay: [1H,15N] HSQC NMR / HPLC: reactivity of cisplatin with histidine and leakage from liposomes
Format: physicochemical
Details: 24-hour incubation, 1:1 mole ratio with N-acetyl histidine
Source text: Inverse detection experiments detect the protons that are coupled to ^15N and thus provide information about the chemical shifts and coupling constants of the ^15N which depend on the ligands in the first coordination sphere of the Pt and on its oxidation state. […] HSQC and HMQC are two-dimensional inverse detection experiments that have the proton chemical shifts on one axis and the ^15N chemical shifts on the second axis. HSQC and HMQC of ^15N-labeled Pt complexes have been used successfully, to detect micromolar concentrations of Pt complexes. In the studies performed in support of the invention, HSQC was used, since it gives narrower lines and better resolution than HMQC. […] In addition to the tremendous gain in sensitivity, HSQC selectively detects only the protons that are coupled to the ^15N, thus ignoring all the other protons in the solution (from the liposomes) and simplifying the interpretation of the data.
These associations are irreversible, thus making the drug unavailable, once bound.
A similar study was carried out with N-BOC-methionine.
Lipids (HSPC/cholesterol/^2000PEG-DSPE 51:44:5) were dissolved in ethanol. […] Aliquots of the liposomes and of both precipitates were analyzed by heteronuclear single quantum coherence (HSQC) at 30° C. […]
All [^1H, ^15N] […] The 2D data were recorded using Bruker sequence of […] […]

## N.N.[Cl][Pt][Cl] [^15N-cisplatin, cis-^15N-diamminedichloroplatinum(II)]
  cisplatin-histidine species, share of the platinum detected (HPLC): 20-30%

— US8062662B2, “Liposomes containing an entrapped compound in supersaturated solution” (Alza Corporation, priority 2000, dated 2011)
